Measured values: US20250387359A1, “COMPOUNDS AND METHODS FOR THE TREATMENT OF PARASITIC INFECTIONS” (THE BOARD OF TRUSTEES OF THE UNIVERSITY OF ILLINOIS, priority 2019, published 2025)
Entries after “also recorded” stand apart in the source; their conditions may differ. Where two headings read alike, the source gives them in different places.

What was measured:
Tolerability in mice = type: in vivo; details: daily oral gavage for 7 days, mice
Protocol: In vivo testing of the anti-Cryptosporidium effect of CpLDH inhibitors. Gamma interferon knockout mice (B6.129S7-Ifng), 8 weeks of age, were purchased from Charles River, USA. The care and use of the mice was done following the guidelines of protocol number 17024 approved by the University of Illinois at Urbana-Champaign, USA. The animals were allowed to acclimatize for 1 week before experiments commenced. Stock solutions of recombinant CpLDH inhibitors reconstituted in DMSO were diluted in sterile distilled water to reduce the final amount of DMSO in the solution to less than 1% (v/v) before administering them to mice. Prior to testing the anti-Cryptosporidium effect of the inhibitors in mice, the tolerability of each inhibitor was tested by oral gavage using varying dosages (100-2000 mg/kg body weight) of each inhibitor in groups of mice (three mice for each dose) daily for 7 days. Mice were observed daily for signs of toxicity including changes from normal physical activity, respiration, body temperature, feeding, posture, fur condition or occurrence of death. […] An equivalent volume of PBS containing a cocktail of penicillin (100 units/ml), streptomycin (100 μg/ml), chloramphenicol (34 μg/ml) and amphotericin (0.25 μg/ml) was added to the fecal samples and stored at 4° C. until use for quantification of C. parvum genomic DNA load. […]

[1] = molecular target: T1, Plasmodium falciparum phosphoethanolamine methyltransferase enzyme (Plasmodium falciparum, UniProt Q8IDQ9); details: previously shown; cited from earlier work
T1 sequence (Q8IDQ9 1-266): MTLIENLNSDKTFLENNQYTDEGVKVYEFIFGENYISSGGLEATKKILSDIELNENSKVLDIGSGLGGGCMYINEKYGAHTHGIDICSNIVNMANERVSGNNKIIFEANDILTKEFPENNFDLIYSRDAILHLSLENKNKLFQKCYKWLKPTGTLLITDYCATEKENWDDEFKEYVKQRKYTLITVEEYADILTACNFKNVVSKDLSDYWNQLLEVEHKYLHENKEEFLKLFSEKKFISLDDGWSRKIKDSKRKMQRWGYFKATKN

C. parvum [2] = experiment: Histopathology of distal small intestine of C. parvum infected mice; type: in vivo, Cryptosporidium parvum; details: lower small intestine, H&E, NSC158011 400 mg/kg, NSC10447 250, 500 or 1000 mg/kg, paromomycin 100 mg/kg
Protocol: In vivo testing of the anti-Cryptosporidium effect of CpLDH inhibitors. Gamma interferon knockout mice (B6.129S7-Ifng), 8 weeks of age, were purchased from Charles River, USA. The care and use of the mice was done following the guidelines of protocol number 17024 approved by the University of Illinois at Urbana-Champaign, USA. The animals were allowed to acclimatize for 1 week before experiments commenced. Stock solutions of recombinant CpLDH inhibitors reconstituted in DMSO were diluted in sterile distilled water to reduce the final amount of DMSO in the solution to less than 1% (v/v) before administering them to mice. Prior to testing the anti-Cryptosporidium effect of the inhibitors in mice, the tolerability of each inhibitor was tested by oral gavage using varying dosages (100-2000 mg/kg body weight) of each inhibitor in groups of mice (three mice for each dose) daily for 7 days. Mice were observed daily for signs of toxicity including changes from normal physical activity, respiration, body temperature, feeding, posture, fur condition or occurrence of death. […] The subsequent dosages of NSC10447 used in the mice infection assays were 250, 500 and 1000 mg/kg mouse body weight, while the NSC158011 dosages used were 100, 200 and 400 mg/kg mouse body weight. Mice were allocated to groups as follows: “Infected plus inhibitor treatment”; “Infected minus inhibitor treatment”; “Uninfected minus inhibitor treatment” and “Infected plus paromomycin treatment”. Each group contained at least three mice. Each mouse in the infection groups received 5,000 C. parvum oocysts (resuspended in 50 μl of PBS) by oral gavage. Mice were housed individually in cages lined with sterile gauze as bedding. […] An equivalent volume of PBS containing a cocktail of penicillin (100 units/ml), streptomycin (100 μg/ml), chloramphenicol (34 μg/ml) and amphotericin (0.25 μg/ml) was added to the fecal samples and stored at 4° C. until use for quantification of C. parvum genomic DNA load. […]

Cryptosporidium parvum [3] = experiment: In vitro anti-Cryptosporidium effect in HCT-8 cells (immunofluorescence assay); type: cell-based; details: HCT-8 cells; for IC50: Cryptosporidium parvum
Protocol: In vitro testing of the anti-Cryptosporidium effect of CpLDH inhibitors. HCT-8 cells were cultured in supplemented RPMI-1640 medium in 96-well plates. When the cells were confluent, old medium was replaced with fresh medium. To one set of wells, varying concentrations of recombinant CpLDH inhibitors (reconstituted in DMSO and diluted in RPMI medium) were added, while another set was left without inhibitors. Paromomycin was used as a positive control drug reconstituted in distilled sterile water. Then, 4×10^4 freshly excysted sporozoites were added to each well and incubated at 37° C. with 5% CO2. After 2 h incubation, varying concentrations of CpLDH inhibitors were added to the set of infected cells that were not treated initially. Control infected cells without inhibitors, but with added DMSO volumes equivalent to those used in the wells with inhibitors, were included. The cells were maintained in culture for a total of either 48 h or 72 h and processed for immunofluorescence assay as previously described (Int. J. Parasitol. 2017; 47(13), 867-874). Briefly, medium was decanted, and the cells fixed with methanol-acetic acid (9:1) for 2 minutes at room temperature. The cells were rehydrated and permeabilized by two successive washes with buffer (0.1% Triton X-100, 0.35 M NaCl, 0.13 M Tris-base, pH 7.6) and blocked with 5% normal goat serum, followed by staining with antibody to C. parvum (SporoGlo; Waterborn, Inc.) overnight at 4° C. The stained cells were washed twice with PBS, followed by water, and then imaged with an inverted fluorescence microscope. Fluorescence quantification was done using ImageJ version 1.37v software (NIH). Assays were performed in triplicate and repeated at least thrice.

C. parvum [4] = experiment: Real-time PCR quantification of C. parvum DNA in fecal samples of infected mice; type: in vivo, Cryptosporidium parvum; details: for reduction of shedding of C. parvum in mice feces vs untreated infected mice: day 7 post-infection; for fecal C. parvum DNA load: Table 6, infected mice, multiplier printed in next cell
Protocol: In vivo testing of the anti-Cryptosporidium effect of CpLDH inhibitors. Gamma interferon knockout mice (B6.129S7-Ifng), 8 weeks of age, were purchased from Charles River, USA. The care and use of the mice was done following the guidelines of protocol number 17024 approved by the University of Illinois at Urbana-Champaign, USA. The animals were allowed to acclimatize for 1 week before experiments commenced. Stock solutions of recombinant CpLDH inhibitors reconstituted in DMSO were diluted in sterile distilled water to reduce the final amount of DMSO in the solution to less than 1% (v/v) before administering them to mice. Prior to testing the anti-Cryptosporidium effect of the inhibitors in mice, the tolerability of each inhibitor was tested by oral gavage using varying dosages (100-2000 mg/kg body weight) of each inhibitor in groups of mice (three mice for each dose) daily for 7 days. Mice were observed daily for signs of toxicity including changes from normal physical activity, respiration, body temperature, feeding, posture, fur condition or occurrence of death. […] The subsequent dosages of NSC10447 used in the mice infection assays were 250, 500 and 1000 mg/kg mouse body weight, while the NSC158011 dosages used were 100, 200 and 400 mg/kg mouse body weight. Mice were allocated to groups as follows: “Infected plus inhibitor treatment”; “Infected minus inhibitor treatment”; “Uninfected minus inhibitor treatment” and “Infected plus paromomycin treatment”. Each group contained at least three mice. Each mouse in the infection groups received 5,000 C. parvum oocysts (resuspended in 50 μl of PBS) by oral gavage. Mice were housed individually in cages lined with sterile gauze as bedding. One day post-infection (PI), daily oral gavage administration of recombinant CpLDH inhibitor or paromomycin commenced and continued for a total of 7 days. Untreated mice received an equivalent volume of sterile distilled water (containing DMSO equivalent to the amount administered in the inhibitor-treated group) by oral gavage. Fecal pellets were collected daily from each cage and placed in individual sterile 15 ml conical tubes. An equivalent volume of PBS containing a cocktail of penicillin (100 units/ml), streptomycin (100 μg/ml), chloramphenicol (34 μg/ml) and amphotericin (0.25 μg/ml) was added to the fecal samples and stored at 4° C. until use for quantification of C. parvum genomic DNA load. Three independent replicate infection assays were performed. At 9 days PI, mice were euthanized and 5 cm of the distal small intestine resected 2 cm anterior to the cecum and immediately submerged in 4% buffered formalin. The intestinal tissues were submitted for histopathology to the Veterinary Diagnostic Laboratory at the University of Illinois at Urbana-Champaign. Briefly, intestinal tissues preserved in 4% buffered formalin were washed in 70% ethanol and embedded in 1% agar and then processed for paraffin embedding. For hematoxylin and eosin staining, five μm transverse and cross sections were cut and processed and stained following standard procedures of the Veterinary Diagnostic Laboratory. Sections were imaged using a Zeiss microscope and images captured with a color camera.
Quantification of C. parvum shed in mice feces. Genomic DNA was extracted from individual fecal samples collected from mice at different days as described above. For each sample, 220 mg of homogenized feces were used to extract genomic DNA using the QIAamp PowerFecal DNA Kit (Qiagen, USA) following the manufacturer's instructions. Quantification of the amount of C. parvum 18s rRNA gene (GenBank accession number AF164102) was performed essentially as described previously (Int. J. Parasitol. 2018; 48(8), 649-656). Briefly, primers were used to generate a 240 bp amplicon from C. parvum genomic DNA by conventional PCR. […]

Plasmodium falciparum = details: previously shown; cited from earlier work
[5] = Compound cytotoxicity assay (WST-1) in HCT-8 cells; type: cell-based, human; details: human; HCT-8 cells, 24 h, WST-1
Protocol: Compound cytotoxicity assay. […] A colorimetric assay using the cell proliferation reagent WST-1 (Roche, USA) for the quantification of cell viability was performed. […] When the cells were confluent, the old medium was replaced with fresh medium with or without varying concentrations of chemical compound. After 24 h of culture, 10 μl of the cell proliferation reagent WST-1, (for quantification of cell viability) was added to each well, mixed and the plates incubated for 1 h at 37 C with 5% CO2 in the dark. […] Molecular Devices, USA).

Cryptosporidium parvum [6] = details: previously reported by others; read-out: IC50, inhibition of C. parvum growth in HCT-8 cells; cited from earlier work
[7] = molecular target: recombinant CpLDH protein (Cryptosporidium parvum, UniProt Q9GT92, F198L/K295E/R251K); details: previous studies; cited from earlier work
Chain of recombinant CpLDH protein (Q9GT92 whole entry F198L/K295E/R251K): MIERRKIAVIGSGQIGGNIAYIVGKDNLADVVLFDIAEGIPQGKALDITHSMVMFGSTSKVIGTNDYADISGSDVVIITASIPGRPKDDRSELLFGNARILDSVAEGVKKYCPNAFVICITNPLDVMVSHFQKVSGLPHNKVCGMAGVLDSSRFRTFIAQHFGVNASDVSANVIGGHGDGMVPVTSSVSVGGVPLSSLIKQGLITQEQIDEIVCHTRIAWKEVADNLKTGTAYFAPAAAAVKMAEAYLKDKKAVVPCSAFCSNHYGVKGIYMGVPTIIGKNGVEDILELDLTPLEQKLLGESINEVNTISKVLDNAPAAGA

In the case of S=C(CSc1ccccc1)Nc1cccc2ccccc12 [NSC158011], the “highest tolerable dose (no toxicity signs)” value (Tolerability in mice) is listed as 400 mg/kg, the “inhibition of catalytic activity of P. falciparum phosphoethanolamine methyltransferase” value [1] is listed as “inhibit the catalytic activity” and the “histopathology of intestinal epithelium and villi” value (C. parvum [2]) is listed as “maintained intact intestinal mucosa and villi; also recorded: intact intestinal epithelium with prominent villi”. For the same compound, the “effect on parasite growth at 40 μM” value (Cryptosporidium parvum [3]; 48 h post-infection, 40 μM) was “blocking parasite growth almost completely”, the IC50 (Cryptosporidium parvum [3]; 48 h, compound added at the time of infection, read-out: IC50, inhibition of C. parvum growth at 48 h p.i.) was 14.9 µM and the IC50 (Cryptosporidium parvum [3]; 72 h, compound added at the time of infection, read-out: IC50, inhibition of C. parvum growth at 72 h p.i.) was 15.6 µM. For the same compound, the IC50 (Cryptosporidium parvum [3]; compound added 2 h post-infection, read-out: IC50, inhibition of C. parvum growth at 48 h p.i. (2 h)) was 15.8 µM, the IC50 (Cryptosporidium parvum [3]; compound added 2 h post-infection, read-out: IC50, inhibition of C. parvum growth at 72 h p.i. (2 h)) was 16.5 µM and the “efficacy lower than paromomycin” value (C. parvum [4]; NSC158011 200 mg/kg, last three days of treatment) was “about 10 fold”. For the same compound, the “shedding of C. parvum oocysts in mice feces” value (C. parvum [4]; NSC158011 400 mg/kg) was “significantly (P<. 0.05) reduced”, the “reduction of shedding of C. parvum in mice feces vs untreated infected mice” value (C. parvum [4]; NSC158011 400 mg/kg) was “about 3000 fold” and the “inhibition of in vitro intracellular growth of P. falciparum” value (Plasmodium falciparum) was “inhibit in vitro intracellular growth of the parasite”. It also gave an IC50 at 24 h [5] of 149 µM.
For NC[C@@H]1O[C@H](O[C@H]2[C@@H](O)[C@H](O[C@@H]3[C@@H](O)[C@H](N)C[C@H](N)[C@H]3O[C@H]3O[C@H](CO)[C@@H](O)[C@H](O)[C@H]3N)O[C@@H]2CO)[C@H](N)[C@@H](O)[C@@H]1O [paromomycin, reference compound], the IC50 (Cryptosporidium parvum [6]) is listed as 711 µM, the “histopathology of intestinal epithelium and villi” value (C. parvum [2]) is listed as “intact intestinal epithelium with prominent villi” and the IC50 (Cryptosporidium parvum [3]; 48 h post-infection, positive control, read-out: IC50, inhibition of C. parvum growth) is listed as 450 µM. For the same compound, the IC50 (Cryptosporidium parvum [3]; 72 h post-infection, positive control, read-out: IC50, inhibition of C. parvum growth) was 400 µM, the “fecal C. parvum DNA load” value (C. parvum [4]; paromomycin 100 mg/kg, DPI 1) was 3.1 ± 0.2 ×10^−10 ng/μL and the “fecal C. parvum DNA load” value (C. parvum [4]; paromomycin 100 mg/kg, DPI 2) was 6.6 ± 0.5 ×10^−9 ng/μL. For the same compound, the “fecal C. parvum DNA load” value (C. parvum [4]; paromomycin 100 mg/kg, DPI 3) was 5.2 ± 0.3 ×10^−9 ng/μL, the “fecal C. parvum DNA load” value (C. parvum [4]; paromomycin 100 mg/kg, DPI 4) was 4.7 ± 0.2 ×10^−8 ng/μL and the “fecal C. parvum DNA load” value (C. parvum [4]; paromomycin 100 mg/kg, DPI 5) was 5.0 ± 0.6 ×10^−7 ng/μL. For the same compound, the “fecal C. parvum DNA load” value (C. parvum [4]; paromomycin 100 mg/kg, DPI 6) was 4.8 ± 0.1 ×10^−6 ng/μL, the “fecal C. parvum DNA load” value (C. parvum [4]; paromomycin 100 mg/kg, DPI 7) was 5.1 ± 0.8 ×10^−6 ng/μL and the “fecal C. parvum DNA load” value (C. parvum [4]; paromomycin 100 mg/kg, DPI 8) was 5.4 ± 0.1 ×10^−6 ng/μL. The “reduction of shedding of C. parvum in mice feces vs untreated infected mice” value (C. parvum [4]; paromomycin 100 mg/kg) was “about 3000 fold”.
In the case of CCCc1c(O)c(O)c(C(=O)O)c2cc(Cc3ccccc3)c(C)cc12 [FX11], the “inhibition of the enzymatic activity of CpLDH” value [7] is given as “able to inhibit the enzymatic activity of CpLDH”.
